From patent publication US20160304556A1, “[…] ACTIVE COMPOUNDS AND THEIR METHODS OF USE” (AGIOS PHARMACEUTICALS, INC, priority 2012, published 2016)

Key:
IDH1 R132H = IDH1 R132H (Homo sapiens, UniProt O75874, R132H); assay: In vitro NADPH depletion assay for IDH1m R132H inhibitors; format: biochemical; settings: enzyme, diaphorase/resazurin readout, read-out: IDH R132H IC50
In short: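 IDH1-R132H homodimer […] was preincubated with compound for 60 min at room temperature in 20 mM Tris-Cl pH 7.5, 150 mM NaCl, 10 mM MgCl2, 0.05% BSA, 2 mM b-mercaptoethanol. Substrate mix (NADPH, 5 mM alpha-ketoglutarate) then reacted for 90 min. Remaining NADPH was read by diaphorase/resazurin fluorescence at Ex544/Em590.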

IDH1 R132C = IDH1 R132C (Homo sapiens, UniProt O75874, R132C); assay: In vitro NADPH depletion assay for IDH1m R132C inhibitors; format: biochemical; settings: enzyme, diaphorase/resazurin readout, read-out: IDH R132C IC50
In short: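 Homodimeric IDH1 R132C was preincubated with compound for 60 min at RT in phosphate buffer (50 mM potassium phosphate pH 6.5, 40 mM sodium carbonate, 5 mM MgCl2, 10% glycerol, 0.03% BSA). The αKG→2-HG reaction was started with substrate mix (20 µM NADPH, 1 mM αKG) and ran 90 min at RT. Remaining NADPH was read by diaphorase/resazurin fluorescence (Ex544/Em590).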

HT1080 cells = assay: Cellular assay, inhibition of 2-HG production (LC-MS) in HT1080 cells; format: cell-based; settings: Homo sapiens, HT-1080, 48 hours, LC-MS of media
In short: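 HT1080 cells (5000/well) were incubated 48 hours with compound, 0.2% DMSO final. Medium 2-HG was quantified by LC-MS, and IC50 was taken as the concentration giving 50% reduction versus DMSO control. Viability was read by CellTiter-Glo luminescence at 72 hours.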

Sequence of IDH1 R132C (O75874 whole entry R132C): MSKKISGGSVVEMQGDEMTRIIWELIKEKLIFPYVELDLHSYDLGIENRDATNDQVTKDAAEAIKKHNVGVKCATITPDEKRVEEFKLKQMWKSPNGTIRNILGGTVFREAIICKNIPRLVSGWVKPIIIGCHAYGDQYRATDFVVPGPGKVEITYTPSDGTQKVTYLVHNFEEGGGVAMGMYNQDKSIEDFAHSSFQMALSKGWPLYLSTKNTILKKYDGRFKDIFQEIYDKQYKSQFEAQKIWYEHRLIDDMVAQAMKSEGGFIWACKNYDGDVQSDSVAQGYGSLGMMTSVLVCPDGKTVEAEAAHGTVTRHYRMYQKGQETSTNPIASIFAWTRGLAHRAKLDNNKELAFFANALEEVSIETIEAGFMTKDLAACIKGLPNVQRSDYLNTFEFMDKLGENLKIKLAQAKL
Sequence of IDH1 R132H (O75874 whole entry R132H): as the sequence (O75874 whole entry R132C) above, with C132H counted along it

Row | SMILES | IC50 (IDH1 R132H) [nM] | IC50 (IDH1 R132C) [nM] | IC50 (HT1080 cells) [nM]
1 | O=C(NC1CCCCC1)C(c1ccc(F)cc1F)N(C(=O)Cn1cnc(Cl)c1Cl)c1cccc(F)c1 (stereo not drawn) [Compound 29] | ≤ 100 | ≤ 100 | 100 to 500
2 | COC(=O)NCC(=O)N(c1cccc(F)c1)[C@H](C(=O)N[C@H]1CCCCC1(F)F)c1ccccc1Cl [Compound 82] | ≤ 100 | ≤ 100 | 100 to 500
3 | C=CC(=O)Nc1cccc(N(C(=O)Cc2cccnc2)C(C(=O)NC2CC(F)(F)C2)c2ccccc2Cl)c1 (stereo not drawn) [Compound 88, N-(3-(N-(1-(2-chlorophenyl)-2-(3,3-difluorocyclobutylamino)-2-oxoethyl)-2-(pyridin-3-yl)acetamido)phenyl)acrylamide] | 500 to 1000 | 100 to 500 | 1000 to 2000
4 | COC(=O)N1[C@@H](C(=O)N(c2cccc(F)c2)[C@H](C(=O)NC2CC(F)(F)C2)c2ccccc2Cl)CCC1(C)C (single isomer, unassigned) [Compound 114] | 100 to 500 | ≤ 100 | 100 to 500
5 | O=C(NC1CC(F)(F)C1)[C@@H](c1ccccc1Cl)N(C(=O)[C@@H]1CCN1c1ccccn1)c1cccc(F)c1 (stereo in doubt) [Compound 105] | 100 to 500 | ≤ 100 | 100 to 500
6 | COC(=O)N1CC[C@H]1C(=O)N(c1cccc(F)c1)[C@H](C(=O)NC1CC(F)(F)C1)c1ccccc1Cl [Compound 106] | ≤ 100 | 100 to 500 | 100 to 500
7 | COC(=O)NCC(=O)N(c1cccc(F)c1)[C@H](C(=O)N[C@@H]1CCC(F)(F)C1)c1ccccc1Cl [Compound 98] | 100 to 500 | 100 to 500 | 1000 to 2000
8 | COC(=O)N[C@@H](CO)C(=O)N(c1cccc(F)c1)[C@H](C(=O)NC1CCCCC1)c1ccccc1Cl [Compound 84] | ≤ 100 | ≤ 100 | 100 to 500

Further lines, results first:

Row | IC50 (IDH1 R132H) [nM] | IC50 (IDH1 R132C) [nM] | IC50 (HT1080 cells) [nM] | SMILES
9 | 100 to 500 | ≤ 100 | 100 to 500 | O=C(NC1CC(F)(F)C1)[C@H](c1ccccc1Cl)N(C(=O)[C@@H]1CCN1c1ncccn1)c1cccc(F)c1 (stereo in doubt) [Compound 102]
10 | ≤ 100 | ≤ 100 | 100 to 500 | O=C(NC1CC(F)(F)C1)[C@H](c1ccccc1Cl)N(C(=O)[C@@H]1C[C@@H](O)CN1c1ncccn1)c1cccc(F)c1 [Compound 100, (2S,4R)—N—((S)-1-(2-chlorophenyl)-2-(3,3-difluorocyclobutyl-amino)-2-oxoethyl)-N-(3-fluorophenyl)-4-hydroxy-1-(pyrimidin-2-yl)pyrrolidine-2-carbox-amide]
11 | ≤ 100 | ≤ 100 | ≤ 100 | O=C1C[C@@H](C(=O)N(c2cccc(F)c2)[C@H](C(=O)NC2CC(F)(F)C2)c2ccccc2Cl)N(c2ncccn2)C1 [Compound 107]
12 | 100 to 500 | ≤ 100 | 100 to 500 | C[C@H]1CC[C@@H](C(=O)N(c2cccc(F)c2)[C@@H](C(=O)NC2CC(F)(F)C2)c2ccccc2Cl)N1c1ncccn1 [Compound 112, (2S,5S)—N—((R)-1-(2-chlorophenyl)-2-(3,3-difluorocyclobutylamino)-2-oxoethyl)-N-(3-fluorophenyl)-5-methyl-1-(pyrimidin-2-yl)pyrrolidine-2-carboxamide]
